Measurements: patent US20240415123A1, “METHODS AND COMPOSITIONS FOR ICAFOLIN HERBICIDE TOLERANCE” (Monsanto Technology LLC, priority 2023, published 2024)

Tests used:
Format in all cases: in vivo
[1] = system: transgenic soybean plants expressing CYP12_var; test: Icafolin herbicide injury rating, greenhouse spray, CYP12_var soybean; conditions: for Percent Injury 15 DAT / Percent injury 21 DAT: Experiment 1
Excerpt: The codon-optimized polynucleotide sequences were placed into plant transformation cassettes with each CYP coding sequence operably-linked to a constitutive expression element comprising the promoter, leader, and intron sequence of Arabidopsis thaliana Ubiquitin 3 (SEQ ID NO:14) and a Medicago truncatula photosystem II terminator (SEQ ID NO:15). Four plant transformation vectors were created, each comprising one of the CYP gene expression cassettes and an aadA selectable marker expression cassette, conferring resistance to the antibiotics spectinomycin and streptomycin. Soybean cultivar AG3555 seed-derived embryo explants were transformed with the vectors by Agrobacterium-mediated transformation using known methods in the art, and transformed plantlets were selected based on growth in the presence of spectinomycin. Plantlets comprising single copy events were grown in the greenhouse to produce R1 seeds. R1 plants were subsequently selected for homozygous CYP-positive plants, either by molecular analysis of young leaf tissue or by seed chipping prior to planting. These selected plants were then screened for tolerance to icafolin herbicide.
Herbicide tolerance screens were performed by selecting R1 plants at roughly the V2-V3 developmental stage and applying icafolin herbicide with a track sprayer under standard greenhouse conditions. Two independent transgenic events per transgene were screened. The herbicide was formulated with 1% v/v methylated seed oil (MSO) and 2.5% v/v ammonium sulfate (AMS) and sprayed with a XR nozzle at 15 gallons per […] (GPA) to mimic field conditions. The icafolin used in this Example and in the experiments described in Examples 2-4 was a mixture of the methyl ester forms of the 2R, 4R and 2S, 4S isomers. The icafolin formulation was sprayed at two rates: 5 g active ingredient (ai)/hectare (ha) and 25 g ai/ha. The herbicide treated soybean plants were returned to the greenhouse following spray application and allowed to grow under standard conditions. Plants were rated for herbicide injury at approximately 14 and 21 days after treatment (DAT). Untreated transgenic plants and control (wild-type) plants were used for phenotypic comparison. The herbicide injury rating accounts for plant malformation, stunting, chlorosis, necrosis, and plant death relative to the untreated control plants. An injury rating of approximately 90% or above indicates nearly complete plant death. An injury rating of less than 30% indicates partial tolerance, and an injury rating of less than 20% indicates good tolerance. Injury ratings were collected and analyzed, and photographs of representative plants were taken.

[2] = system: transgenic soybean plants expressing CYP28; test: Icafolin herbicide injury rating, greenhouse spray, CYP28 soybean; conditions: Table 8
Excerpt: The codon-optimized genes were placed into plant transformation cassettes with each CYP coding sequence operably linked to a constitutive expression element comprising the promoter, leader, and intron of Arabidopsis thaliana Ubiquitin 3 (SEQ ID NO:14) and a Medicago truncatula photosystem II terminator (SEQ ID NO:15). Two plant transformation vectors were created, each comprising one of the CYP gene cassettes and an aadA selectable marker expression cassette, conferring resistance to the antibiotics spectinomycin and streptomycin. Soybean cultivar AG3555 seed-derived embryo explants were transformed with the vectors described above by Agrobacterium-mediated transformation using known methods in the art, and positive-transformed plantlets were selected based on growth in the presence of spectinomycin. Plantlets comprising single copy events were grown in the greenhouse to produce R1 seeds. R1 plants were subsequently selected for the homozygous CYP positive plants, either by molecular analysis of young leaf tissue or by seed chipping prior to planting. These selected plants were then screened for tolerance to the icafolin herbicide.
Herbicide tolerance screening was performed by selecting R1 plants at roughly the V2-V3 developmental stage and applying the icafolin herbicide in a track sprayer under standard greenhouse conditions. Two independent transgenic events per transgene were selected for screening. The herbicide was formulated with 1% v/v methylated seed oil (MSO) and 2.5% v/v ammonium sulfate (AMS) and sprayed with a XR nozzle at 15 gallons per […] (GPA) to mimic field conditions. The icafolin formulation was sprayed at two rates: 5 g active ingredient (ai)/hectare (ha) and 25 g ai/ha. The treated soybean plants were returned to the greenhouse following spray application and allowed to grow under standard conditions. The plants were rated for herbicide injury at approximately 14 and 21 days after treatment (DAT). Untreated transgenic plants and control (wild-type) plants were used for phenotypic comparison. The herbicide injury rating accounts for plant malformation, stunting, chlorosis, necrosis, and plant death relative to the untreated control plants. An injury rating of approximately 90% or above indicates nearly complete plant death. An injury rating of less than 30% indicates partial tolerance and an injury rating of less than 20% indicates good tolerance. Injury ratings were collected and analyzed, and photographs of representative plants were taken.

[3] = system: Soy transgenic plants expressing CYP15; test: Field trial icafolin injury rating, CYP15 soybean; conditions: for Percent Plant Injury (21 DAT): averaged across repetitions, field locations and events
Procedure: Soy transgenic plants expressing CYP14 or CYP15 were assayed in small scale field trails across nine sites in the United States for tolerance to icafolin spray applications. The plants were grown in field plots and sprayed during the early vegetative stages when plants were roughly at the V3 stage. The icafolin formulation was sprayed at either a 5 g ai/ha or 25 g ai/ha application rate with 2 treatment replications per location. The plants were rated for herbicide injury at 7, 14, 21, and 28 days after treatment (DAT). A total of 12 events for CYP14 and 11 events for CYP15 were tested. An event transformed with a non-herbicide tolerance construct served as a negative control to provide a comparison for injury.

[4] = CYP12_var Event 909, 5 g ai/ha icafolin
[5] = CYP12_var Event 909, 25 g ai/ha icafolin
[6] = CYP12_var Event 932, 5 g ai/ha icafolin
[7] = CYP12_var Event 932, 25 g ai/ha icafolin
[8] = CYP28 Event 44, 5 g ai/ha icafolin
[9] = CYP28 Event 44, 25 g ai/ha icafolin
[10] = CYP28 Event 90, 5 g ai/ha icafolin
[11] = CYP28 Event 90, 25 g ai/ha icafolin

In the case of `C=C[C@]1(C(=O)N[C@H]2CO[C@@H](C(=O)OC)C2)CC(c2cc(F)cc(F)c2)=NO1` (relative stereo) [icafolin, methyl(2R*,4R*)-4-[[(5S)-3-(3,5-difluorophenyl)-5-vinyl-4H-isoxazole-5-carbonyl]amino]tetrahydrofuran-2-carboxylate], the “Percent Injury 15 DAT” value [1, 4] is reported as 39%, the “Percent injury 21 DAT” value [1, 4] is reported as 50% and the “Percent Injury 15 DAT” value [1, 5] is reported as 57%. The “Percent injury 21 DAT” value [1, 5] was 77%, the “Percent Injury 15 DAT” value [1, 6] was 42% and the “Percent injury 21 DAT” value [1, 6] was 47%. For the same molecule, the “Percent Injury 15 DAT” value [1, 7] was 69%, the “Percent injury 21 DAT” value [1, 7] was 80% and the Tolerance to icafolin ([1]; in vivo) was “did not show any noticeable tolerance”. For the same molecule, the “Percent Injury 14 DAT” value [2, 8] was 15.6%, the “Percent injury 21 DAT” value [2, 8] was 13.3% and the “Percent Injury 14 DAT” value [2, 9] was 67.2%. The “Percent injury 21 DAT” value [2, 9] was 56.7%, the “Percent Injury 14 DAT” value [2, 10] was 28.0% and the “Percent injury 21 DAT” value [2, 10] was 13.0%. The “Percent Injury 14 DAT” value [2, 11] was 68.0%, the “Percent injury 21 DAT” value [2, 11] was 74.0% and the “Percent Plant Injury (21 DAT)” value ([3]; 5 g ai/ha icafolin) was 8.7%. The “injury ratings” value ([3]; 5 g ai/ha, 21 DAT) was “below 15%”, the Tolerance to icafolin ([3]; 25 g ai/ha) was “Incomplete tolerance” and the “Percent Plant Injury (21 DAT)” value ([3]; 25 g ai/ha icafolin) was 31.9%.
